From patent publication US20210024879A1, “BIOSYNTHETIC ACTIVITY OF THE ANAPLASMA PHAGOCYTOPHILUM AND EHRLICHIA CHAFFEENSIS PHAGOSOME IN A HOST CELL-FREE MEDIUM” (Kansas State University Research Foundation, priority 2018, published 2021)

How the values were obtained:
[1] = system: E. chaffeensis cell-free organisms (DC and RC fractions); assay: Protein synthesis by 35S-cysteine-methionine incorporation in cell-free E. chaffeensis in axenic medium; assay type: cell-based, Ehrlichia chaffeensis; settings: for protein biosynthesis with different energy sources: RC form recovered from DH82 cultures, axenic medium supplemented with the carbon source, FIGS. 5A and 5B; for protein synthesis (35S Cys-Met incorporation) when inhibitor included in the media: axenic media with G6P, 24 h, renografin-purified organisms, FIG. 1
Procedure: Protein synthesis by ^35S-cysteine-methionine incorporation: Protein synthesis in cell-free purified fractions of E. chaffeensis was measured by incorporation of ^35S-Cys-Met (Perkin Elmer, Waltham, Mass.) as described by Omsland, A., et al., in Developmental stage-specific metabolic and transcriptional activity of Chlamydia trachomatis in an axenic medium. Proc Natl Acad Sci USA. […] For normalization of bacterial total protein content, the suspension of E. chaffeensis cell-free fractions were lysed in 1% (wt/vol) SDS for 5 minutes at 100° C. and the total protein concentration was determined using Protein Assay kit (Bio-Rad, Hercules, Calif.). Subsequently, the suspensions of E. chaffeensis cell-free fractions were equally split into micro-centrifuge tubes at the amount of 30 μg total protein. Partially opened micro-centrifuge tubes containing 500 μL of medium supplemented with 70 μCi of ^35S-Cys-Met were incubated at 37° C. for 24 hours in a tri-gas incubator set to maintain 2.5% O2. E. chaffeensis cell-free organisms were pelleted at the end of incubation by centrifugation at 15,000×g for 15 minutes at 4° C., washed with K-36 buffer (0.05M K2HPO4, 0.05M KH2PO4, 0.1M KCl, 0.15M NaCl, pH7.0) twice, and disrupted by adding 30 μL of 2×SDS-PAGE sample buffer and by boiling for 5 minutes. Ten μL of lysate each was then transferred to a tube containing 5 mL of biosafe liquid II and used for quantification of ^35S-Cys-Met incorporation using the protocol 4 (^35S) in a liquid scintillation counter (TRI-CARB 2100TR, PerkinElmer, Waltham, Mass.). For visualizing the radiolabel incorporation into bacterial proteins, equal volumes of sample lysates were also separated in an SDS/PAGE and the gel was dried and exposed to an X-ray film. Similarly, cell-free growth experiments were carried out in the absence of ^35S-Cys-Met, resolved on an SDS-PAGE gel, and stained using silver nitrate staining kit (Pierce/ThermoFisher Scientific) as per the manufacturer's recommendations.

[2] = system: E. chaffeensis cell-free phagosomes; assay: 35S Cys-Met incorporation into cell-free phagosomes; assay type: cell-based, Ehrlichia chaffeensis; settings: energy source or CHL in axenic medium
Procedure: (§1) Protein synthesis by ^35S-cysteine-methionine incorporation: Protein synthesis in cell-free purified phagosomes of A. phagocytophilum or E. chaffeensis was measured by incorporation of […] (Perkin Elmer, Waltham, Mass.) as described previously. For normalization of bacterial total protein content, the suspension of the cell-free phagosomes were lysed in 1% (wt/vol) SDS for 5 minutes at 100° C. and the total protein concentration was determined using Protein Assay kit (Bio-Rad, Hercules, Calif.). Subsequently, the suspensions of cell-free phagosomes were equally split into micro-centrifuge tubes at the amount of 30 μg total protein. Partially opened micro-centrifuge tubes containing 500 μL of medium supplemented with 70 μCi of ^35S-Cys-Met were incubated 24 hours at 37° C. in a tri-gas incubator set to maintain 2.5% O2. The cell-free organisms were pelleted at the end of incubation by centrifugation at 15,000×g for 15 minutes at 4° C., washed with K-36 buffer (0.05M K2HPO4, 0.05M KH2PO4, 0.1M KCl, 0.15M NaCl, pH7.0) twice, and disrupted by adding 30 μL of 2×SDS-PAGE sample buffer and by boiling for 5 minutes. Ten μL of lysate each was then transferred to a tube containing 5 mL of biosafe liquid II and used for quantification of ^35S-Cys-Met incorporation using the protocol 4 (^35S) in a liquid scintillation counter (TRI-CARB 2100TR, PerkinElmer, Waltham, Mass.). For visualizing the of radiolabel incorporation into phagosomes proteins, equal volumes of sample lysates were also separated in an SDS/PAGE and the gel was dried and exposed to an X-ray film. Similarly, cell-free growth experiments were carried out in the absence of added ^35S-Cys-Met, resolved on an SDS-PAGE gel and stained using silver nitrate staining kit (Pierce/ThermoFisher Scientific) as per the manufacturer's recommendations.

[3] = system: A. phagocytophilum cell-free phagosome; assay: Protein biosynthesis by protein fractionation, silver stained SDS polyacrylamide gel; assay type: cell-based, Anaplasma phagocytophilum; settings: FIGS. 15A and 15B, CHL-containing lanes
Procedure: Sodium dodecyl sulfate polyacrylamide gel electrophoresis: Five μL of NuPAGE LDS sample buffer and 2 μL of NuPAGE reducing agent (Invitrogen/ThermoFisher Scientific) were added to each of 10 μL of sample solution following cell-free incubation experiments in the axenic medium, boiled for 5 minutes, and then loaded onto a Mini-PROTEAN Precast Bis-Tris 4% to 14% gels (Bio-rad, Hercules, Calif.) and subjected to electrophoresis (100 mA/gel for 60 minutes). The gels were then stained with Silver staining kit (Pierce/ThermoFisher Scientific) according to the manufacturer's recommendations.
Western blot analysis to assess protein synthesis: For detection of the DnaK and P28 proteins of E. chaffeensis or the Dnak of A. phagocytophilum, the above described electrophoresed proteins were transferred onto a nitrocellulose membrane (Thermo Fisher Scientific, Waltham, Mass.) by subjecting to electro-blotting using an electrophoretic transfer unit (Bio-Rad). Protein transfer buffer was prepared as per the manufacturer's instructions and used in the protein transfer protocols. Subsequently, E. chaffeensis DnaK and P28 expressions were assessed using the polyclonal rabbit antisera raised against a recombinant E. chaffeensis proteins for DnaK and P28, respectively. […]

[4] = system: A. phagocytophilum cell-free phagosomes; assay: 35S Cys-Met incorporation into cell-free phagosomes; assay type: cell-based, Anaplasma phagocytophilum; settings: energy source or CHL in axenic medium
Procedure: as §1

SMILES | protein biosynthesis with different energy sources [1] | incorporation of 35S Cys-Met ([2]; FIG. 12B photograph) | incorporation of 35S Cys-Met ([2]; FIG. 12D graph) | incorporation of 35S Cys-Met ([4]; FIG. 12A photograph) | incorporation of 35S Cys-Met ([4]; FIG. 12C graph) | further results
O=C(O)CCC(=O)C(=O)O [alpha ketoglutarate] | supported the protein biosynthesis similarly | – | – | – | – | –
CC(=O)[O-].[Na+] [sodium acetate] | supported the protein biosynthesis similarly | – | – | – | – | –
O=C(N[C@H](CO)[C@H](O)c1ccc([N+](=O)[O-])cc1)C(Cl)Cl [CHL, chloramphenicol, reference compound] | – | no incorporation | no incorporation | no incorporation | no incorporation | protein synthesis (35S Cys-Met incorporation) when inhibitor included in the media [1]: abolished; protein synthesis (protein abundance, silver stained gel) [3]: no synthesis
CO[C@H]1/C=C/O[C@@]2(C)Oc3c(C)c(O)c4c(O)c(c(/C=N/N5CCN(C)CC5)c(O)c4c3C2=O)NC(=O)/C(C)=C\C=C\[C@H](C)[C@H](O)[C@@H](C)[C@@H](O)[C@@H](C)[C@H](OC(C)=O)[C@@H]1C [rifampin, reference compound] | – | – | – | – | – | protein synthesis (35S Cys-Met incorporation) when inhibitor included in the media [1]: abolished
Nc1ncnc2c1ncn2[C@@H]1O[C@H](COP(=O)(O)OP(=O)(O)OP(=O)(O)O)[C@@H](O)[C@H]1O [ATP, adenosine triphosphate] | – | showed incorporation | showed incorporation | showed incorporation | showed incorporation | –
O[C@H](CS)[C@H](O)CS (racemic) [DTT, Dithiothreitol] | – | – | – | – | – | impact of exclusion of reducing agent on protein biosynthesis ([1]; axenic medium with G6P, absence of DTT, RC fraction): only a marginal negative effect
O=C[C@H](O)[C@@H](O)[C@H](O)[C@H](O)COP(=O)(O)O [G6P, glucose 6-phosphate] | supported the protein biosynthesis similarly | showed incorporation | showed incorporation | showed incorporation | showed incorporation | –
